Data on 15 compounds can be found in patent US20250326718A1, “4-PHENYL-2-PYRROLIDINONES AND METHODS OF USING THEREOF” (North Carolina State University, priority 2022, published 2025).

In brackets after ≈: the same amount, converted by molar mass. Structures can show the parent of a compound that is named as a salt. Where two headings read alike, the source gives them in different places.

Broadly, the MIC is the lowest concentration found to suppress growth. Broadly, the inhibition is the relative decrease from the control value, in per cent.

The subject of one experiment is MRSA (ATCC 33591). Description: Broth microdilution MIC, MRSA ATCC 33591. It counts as cell-based. Conditions: Staphylococcus aureus; Table 1, Compounds 1-15; preliminary data, modified non-standard conditions (pH 9), solubility-limited. As to the method: (§1) General information—Biological Assays. Methicillin-resistant and methicillin sensitive Staphylococcus aureus (MRSA and MSSA respectively) strains were obtained from the Laboratory of Professor Christian Melander (NCSU) (ATCC BAA 44 and 33591) and Dr. Jessica Gilbertie (ATCC 25923). Bacteria were kept in frozen stocks on glycerol at −80° C. until use. Bacteria was streaked onto tryptic-soy agar for colony isolation. Mueller-Hinton broth (MHB, 211443-BD), tryptic soy broth (TSB, Remel: R455052) and D-glucose (CAS: 492-62-6) were purchased from Fisher Scientific. Tryptic soy agar (TSA, cat. #22091) and Linezolid (cat. #P70014) were purchased from Sigma-Aldrich. Bacteria for biofilm inhibition were cultured overnight in TSB-G (tryptic soy broth with 0.5% glucose supplement) in 96 well plates. All assays were run in duplicate and repeated at least two separate times for MIC assays and at least three separate times for biofilm inhibition. All compounds were dissolved in molecular biology grade DMSO as 10 mM stock solutions. Optical densities were measured using a Thermo Scientific Genesys 20 spectrophotometer. Data for biofilm inhibition were collected using a BioTek ELx808 Microplate Reader. All graphs were generated and analyzed using GraphPad Prism 7.
Broth microdilution method for determination of minimum inhibitory concentrations. As prescribed by the Clinical and Laboratory Standards Institute (CLSI) M07-A8, Vol. 29 (2) MSSA (ATCC 25923) and MRSA (ATCC BAA 44 and 33591) was grown in MHB for 6-8 h; this culture was used to inoculate fresh MHB (5×10^5 CFU/mL). The resulting bacterial suspension was aliquoted (1 mL) into 1.5 mL Eppendorf tubes and compound was added from a 10 mM DMSO stock to achieve the desired initial starting concentration (typically 128 μg/mL). Linezolid (from a 10 mM DMSO stock) was used as a positive control. Inoculated media not treated with compound served as the negative control. The MIC was determined by microbroth dilution following the CLSI guidelines. The MIC was defined as the lowest concentration of antibiotic with no visible growth. The plate was sealed and incubated under stationary conditions at 37° C.
The antimicrobial activity of Compounds 1-15 was assessed initially against MSSA (ATCC 25923) and MRSA (ATCC 33591) strains. It was observed that almost all these compounds precipitated in aqueous solution at concentrations equal or higher than 8-16 μg/mL. In order to obtain preliminary results on the antimicrobial activity for these compounds, the standard conditions of the antimicrobial assays used where modified to favor the water solubility of these compounds.

The test system of experiment [1] is MRSA (ATCC BAA 44) biofilm. Put plainly: Inhibition of MRSA biofilm formation (crystal violet). Format: cell-based. Conditions: Staphylococcus aureus, 24 h, Table 1. The method, then: as §1
Determination of the inhibitory effect of test compounds on MRSA biofilm formation. Inhibition assays were performed using a procedure adapted from S. A. Rogers and C. Melander, Angew. Chem. Int. Ed., 2008, 47, 5229-5231, which is hereby incorporated herein by reference. Briefly, the inhibition assays were performed by subculturing an overnight culture of MRSA (ATCC BAA 44) to an OD600 of 0.01 in TSB-G (tryptic soy broth with a 0.5% glucose supplement). Stock solutions of predetermined concentrations of the test compound were then made using the inoculated TSB-G. These stock solutions were aliquoted (100 μL) into the wells of the 96-well microtiter plate. Sample plates were sealed then incubated for 24 h at 37° C. After incubation, the medium was discarded from the wells and the plates were washed 2× with PBS. Prior to staining, plates were left to dry at ambient temperature for 2-3 h. Plates were then stained with 0.1% solution of crystal violet (CV, 125 μL) and then incubated at ambient temperature for 30 min. Plates were washed with PBS again and the remaining stain was solubilized with 99% ethanol (200 μL). A sample of solubilized CV stain (110 μL) from each well was transferred to the corresponding wells of a polystyrene microtiter dish. Biofilm biomass was quantified by measuring the OD540 of each well and inhibition was calculated as a percentage of the control (no compound); a negative control lane wherein no biofilm was formed served as a background and was subtracted out. Percent inhibition was then plotted against concentration in Prism 7. Each of the four experiments were plotted separately and S15 analyzed by a normalized nonlinear regression. The graphs on the following pages were generated from an average of the total data set. Biofilm data represent four separate experiments, with each experiment performed in duplicate (average of 8 data points for each concentration tested, unless otherwise noted).

Another experiment relates to MSSA (ATCC 25923). Put plainly: Broth microdilution MIC, MSSA ATCC 25923. Format: cell-based. Conditions: Staphylococcus aureus, read-out: MIC value against MSSA ATCC 25923. In general terms: In broth dilution the organism is exposed to a series of concentrations in liquid medium.
Experiment [2] relates to MSSA (ATCC 25923) biofilms. Put plainly: Minimum Biofilm Eradication Concentration (MBEC), Calgary Biofilm Device. Format: cell-based, Staphylococcus aureus. The settings on record: antibiotic alone.
Experimental: MBEC concentrations were measured using a procedure adapted from H. Ceri, et al., J Clin. Microbiol., 1999, 1771-1776, which is hereby incorporated herein by reference. Briefly, biofilm eradication experiments were performed using MSSA (ATCC 25923) and the Calgary Biofilm Device (CBD) to determine MBEC values for various compounds of interest (Innovotech, product code: 19111). The Calgary device is a 96-well plate with a lid containing 96 pegs that sit in the media contained in the bottom well. Biofilm are established on the individual pegs. The established biofilm (contained on the individual peg) can then be transferred to a new base well for MBEC testing. For the MBEC assay, an overnight culture of MSSA (ATCC 25923) was adjusted to 0.5 McFarland in MHB-G. The CBD was inoculated with 100 μL of the 0.5 McFarland and incubated at 37° C. for 24 hours to establish biofilms. The CBD lid containing the established biofilms on individual pegs was removed, washed 3× with PBS and transferred to another 96-well plate containing serial dilutions of the test compounds (the “challenge plate”) and incubated at 37° C. for 24 hours. […] The plate was then sonicated for sonicated for 30 minutes to disperse biofilms on S16 the pegs into the fresh MHB in the base well. After sonication, the plate was incubated for 24 hours at 37° C.

Compound `CCC1C(c2ccc(C(F)(F)F)cc2)=C(O)C(=O)N1c1ccccc1` (stereo not shown) [Compound 1, 5-Ethyl-3-hydroxy-1-phenyl-4-(4-(trifluoromethyl)phenyl)-1,5-dihydro-2H-pyrrol-2-one] displayed an MIC against MRSA (ATCC 33591) of 16 µg/mL (≈ 46.1 µM). In experiment [1], the inhibition at 5 µM stood at 5% and the inhibition at 40 µM came to 85%.

Take `CC1C(c2ccc(C(F)(F)F)cc2)=C(O)C(=O)N1c1ccccc1` (stereo not shown) [Compound 2, 3-Hydroxy-5-methyl-1-phenyl-4-(4-(trifluoromethyl)phenyl)-1,5-dihydro-2H-pyrrol-2-one]: it took 32 µg/mL (≈ 96 µM) to inhibit growth with MRSA (ATCC 33591) (MIC). Further, in experiment [1], the inhibition at 5 µM is -26% and the inhibition at 40 µM worked out at 72%.

In the experiment on MRSA (ATCC 33591), `CCC1C(c2ccc(C(F)(F)F)cc2)=C(O)C(=O)N1c1ccc(Br)cc1` (stereo not shown) [Compound 3, 1-(4-Bromophenyl)-5-ethyl-3-hydroxy-4-(4-(trifluoromethyl)phenyl)-1,5-dihydro-2H-pyrrol-2-one] registered a minimum inhibitory concentration (MIC) of 32 µg/mL (≈ 75.1 µM). In experiment [1], the inhibition at 5 µM was found to be 34% and the inhibition at 40 µM came to 72%.

In the experiment on MRSA (ATCC 33591), `CCC1C(c2ccc(C(F)(F)F)cc2)=C(O)C(=O)N1c1ccc(F)cc1` (stereo not shown) [Compound 4, 5-Ethyl-1-(4-fluorophenyl)-3-hydroxy-4-(4-(trifluoromethyl)phenyl)-1,5-dihydro-2H-pyrrol-2-one] had an MIC of 16 µg/mL (≈ 43.8 µM). Further, in experiment [1], the inhibition at 5 µM stood at 22% and the inhibition at 40 µM worked out at 81%.

`CCC1C(c2ccc(C(F)(F)F)cc2)=C(O)C(=O)N1c1ccc(OC)c(OC)c1` (stereo not shown) [Compound 5, 1-(3,4-Dimethoxyphenyl)-5-ethyl-3-hydroxy-4-(4-(trifluoromethyl)phenyl)-1,5-dihydro-2H-pyrrol-2-one] gave an MIC in the experiment on MRSA (ATCC 33591) of more than 128 µg/mL. In addition, in experiment [1], the inhibition at 5 µM is 17% and the inhibition at 40 µM stood at 70%.

In the experiment on MRSA (ATCC 33591), `CCC1C(c2ccc(C(F)(F)F)cc2)=C(O)C(=O)N1c1cccnc1` (stereo not shown) [Compound 6, 5-Ethyl-3-hydroxy-1-(pyridin-3-yl)-4-(4-(trifluoromethyl)phenyl)-1,5-dihydro-2H-pyrrol-2-one] returned an MIC of more than 128 µg/mL. Further, in experiment [1], the inhibition at 5 µM was determined as 4% and the inhibition at 40 µM came out at 31%.

As for `CCC1C(c2ccc(C(F)(F)F)cc2)=C(O)C(=O)N1Cc1cccs1` (stereo not shown) [Compound 7, 5-Ethyl-3-hydroxy-1-(thiophen-2-ylmethyl)-4-(4-(trifluoromethyl)phenyl)-1,5-dihydro-2H-pyrrol-2-one], the MIC with MRSA (ATCC 33591) is more than 128 µg/mL. Moreover, in experiment [1], the inhibition at 5 µM turned out to be 54% and the inhibition at 40 µM amounted to 79%.

Turning to `CCC1C(c2ccc(C(F)(F)F)cc2)=C(O)C(=O)N1CCc1ccccc1` (stereo not shown) [Compound 8, 5-Ethyl-3-hydroxy-1-phenethyl-4-(4-(trifluoromethyl)phenyl)-1,5-dihydro-2H-pyrrol-2-one], the MIC against MRSA (ATCC 33591) was more than 128 µg/mL. For the same compound, in experiment [1], the inhibition at 5 µM came to 23% and the inhibition at 40 µM is 46%.

`O=C1C(O)=C(c2ccc(C(F)(F)F)cc2)CN1c1ccccc1` [Compound 9, 3-Hydroxy-1-phenyl-4-(4-(trifluoromethyl)phenyl)-1,5-dihydro-2H-pyrrol-2-one] came in with an MIC in the experiment with MRSA (ATCC 33591) of more than 128 µg/mL. In experiment [1], the inhibition at 5 µM came to 26% and the inhibition at 40 µM amounted to 8%.

For `CC(C)C1C(c2ccc(C(F)(F)F)cc2)=C(O)C(=O)N1c1ccccc1` (stereo not shown) [Compound 10, 3-Hydroxy-5-isopropyl-1-phenyl-4-(4-(trifluoromethyl)phenyl)-1,5-dihydro-2H-pyrrol-2-one], in the experiment on MRSA (ATCC 33591), the MIC is more than 128 µg/mL. For the same compound, in experiment [1], the inhibition at 5 µM is -5% and the inhibition at 40 µM worked out at 3%.

In the experiment with MRSA (ATCC 33591), `CCCCCN1C(=O)C(O)=C(c2ccc(C(F)(F)F)cc2)C1CC` (stereo not shown) [Compound 11, 5-Ethyl-3-hydroxy-1-pentyl-4-(4-(trifluoromethyl)phenyl)-1,5-dihydro-2H-pyrrol-2-one] yielded an MIC of 16 µg/mL (≈ 46.9 µM). Further, in experiment [1], the inhibition at 5 µM was determined as 58% and the inhibition at 40 µM was 63%.

As for `CCC1C(c2ccc(C(F)(F)F)cc2)=C(O)C(=O)N1CCC(C)C` (stereo not shown) [Compound 14, 5-Ethyl-3-hydroxy-1-isopentyl-4-(4-(trifluoromethyl)phenyl)-1,5-dihydro-2H-pyrrol-2-one], the MIC with MRSA (ATCC 33591) was more than 128 µg/mL. Further, in experiment [1], the inhibition at 5 µM was determined as 47% and the inhibition at 40 µM turned out to be 43%.

Compound `CCC1C(c2ccc(C(F)(F)F)cc2)=C(O)C(=O)N1Cc1ccc(OC)cc1OC` (stereo not shown) [Compound 15] returned an MIC with MRSA (ATCC 33591) of more than 128 µg/mL. In addition, in experiment [1], the inhibition at 5 µM amounted to 63% and the inhibition at 40 µM stood at 57%.

With `Cc1onc(-c2ccccc2)c1C(=O)N[C@@H]1C(=O)N2[C@@H]1SC(C)(C)[C@@H]2C(=O)O` [Oxacillin, oxacillin sodium monohydrate, reference compound], the minimum inhibitory concentration (MIC) with MSSA (ATCC 25923) (antibiotic alone) is 0.5 µg/mL. For the same compound, the “MBEC value against MSSA ATCC 25923” value in experiment [2] turned out to be 2048 pug/mL.

Consider `CN[C@H](CC(C)C)C(=O)N[C@H]1C(=O)N[C@@H](CC(N)=O)C(=O)N[C@H]2C(=O)N[C@H]3C(=O)N[C@H](C(=O)N[C@H](C(=O)O)c4cc(O)cc(O)c4-c4cc3ccc4O)[C@H](O)c3ccc(c(Cl)c3)Oc3cc2cc(c3O[C@@H]2O[C@H](CO)[C@@H](O)[C@H](O)[C@H]2O[C@H]2C[C@](C)(N)[C@H](O)[C@H](C)O2)Oc2ccc(cc2Cl)[C@H]1O` [Vancomycin, vancomycin hydrochloride, reference compound], for which the MIC in the experiment with MSSA (ATCC 25923) amounted to 0.5 µg/mL. In addition, in experiment [2], the “MBEC value against MSSA ATCC 25923” value was found to be 2048 pug/mL.
